Where a SMILES comes first, the peptide text is derived from it. Bridges are numbered along the chain shown (N, C = ends).

Data on one compound can be found in patent publication US5955572A, “Structural mimics of RGD-binding sites” (La Jolla Cancer Research Foundation, priority 1998, dated 1999).

The assay addresses T1, β3 (109-133) peptide (Homo sapiens, UniProt P05106).
T1 construct: made in house; host or cells: chemical synthesis
T1 sequence (P05106 135-159 limits assumed): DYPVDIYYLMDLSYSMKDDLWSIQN
Put plainly: RGD-phage binding to peptides from the β3 integrin subunit. The note with it: titration experiments (not shown); read-out: concentration giving 50% inhibition of RGD-binding to β3 (109-133).

In the case of `CC(C)C[C@@H]1NC(=O)[C@H](Cc2c[nH]c3ccccc23)NC(=O)CNC(=O)[C@H](CC(=O)O)NC(=O)[C@H](CC(=O)O)NC(=O)[C@H](Cc2c[nH]c3ccccc23)NC(=O)[C@@H](N)CSSC[C@@H](C(=O)O)NC1=O` (H-CWDDGWLC-OH; disulfide 1-8), the IC50 is about 1000 nM.
